According to patent US20170088520A1, “DEUBIQUITINASE INHIBITORS” (PharmAkea, Inc., priority 2014, published 2017):

Experiments:
Type in all cases: cell-based
[1] = test system: PARP cleavage in cells (NCI-H929, Z138, MM.1S, A-375); test: Analysis of PARP cleavage by Western blotting; conditions: compound tested at 5 μM; Western blot
Procedure, shortened: (§1)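 NCI-H929, Z138, MM.1S and A-375 cells were treated with compounds at 5 μM, and lysates were Western blotted with anti-Mcl-1 and anti-PARP antibodies, quantified by infrared fluorescence. Activity is a significant drop in Mcl-1 and the appearance of cleaved PARP, each relative to vehicle-treated cells.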

[2] = test system: Mcl-1 expression in cells (NCI-H929, Z138, MM.1S, A-375); test: Analysis of Mcl-1 expression by Western blotting; conditions: compound tested at 5 μM; Western blot
Procedure, shortened: as §1

[3] = target: T1, DUB activity in cells (NCI-H929, Z138, MM.1S, A375) (Homo sapiens, UniProt Q93008); test: HA-Ubiquitin-Vinylsulfone (HA-Ub-VS) cell labeling assay; conditions: compound tested at 5 μM; HA-Ub-VS labeling of USP9x in cells
T1 construct: endogenous in cells; host or cells: NCI-H929, Z138, MM.1S, A375
T1 sequence (Q93008 whole entry): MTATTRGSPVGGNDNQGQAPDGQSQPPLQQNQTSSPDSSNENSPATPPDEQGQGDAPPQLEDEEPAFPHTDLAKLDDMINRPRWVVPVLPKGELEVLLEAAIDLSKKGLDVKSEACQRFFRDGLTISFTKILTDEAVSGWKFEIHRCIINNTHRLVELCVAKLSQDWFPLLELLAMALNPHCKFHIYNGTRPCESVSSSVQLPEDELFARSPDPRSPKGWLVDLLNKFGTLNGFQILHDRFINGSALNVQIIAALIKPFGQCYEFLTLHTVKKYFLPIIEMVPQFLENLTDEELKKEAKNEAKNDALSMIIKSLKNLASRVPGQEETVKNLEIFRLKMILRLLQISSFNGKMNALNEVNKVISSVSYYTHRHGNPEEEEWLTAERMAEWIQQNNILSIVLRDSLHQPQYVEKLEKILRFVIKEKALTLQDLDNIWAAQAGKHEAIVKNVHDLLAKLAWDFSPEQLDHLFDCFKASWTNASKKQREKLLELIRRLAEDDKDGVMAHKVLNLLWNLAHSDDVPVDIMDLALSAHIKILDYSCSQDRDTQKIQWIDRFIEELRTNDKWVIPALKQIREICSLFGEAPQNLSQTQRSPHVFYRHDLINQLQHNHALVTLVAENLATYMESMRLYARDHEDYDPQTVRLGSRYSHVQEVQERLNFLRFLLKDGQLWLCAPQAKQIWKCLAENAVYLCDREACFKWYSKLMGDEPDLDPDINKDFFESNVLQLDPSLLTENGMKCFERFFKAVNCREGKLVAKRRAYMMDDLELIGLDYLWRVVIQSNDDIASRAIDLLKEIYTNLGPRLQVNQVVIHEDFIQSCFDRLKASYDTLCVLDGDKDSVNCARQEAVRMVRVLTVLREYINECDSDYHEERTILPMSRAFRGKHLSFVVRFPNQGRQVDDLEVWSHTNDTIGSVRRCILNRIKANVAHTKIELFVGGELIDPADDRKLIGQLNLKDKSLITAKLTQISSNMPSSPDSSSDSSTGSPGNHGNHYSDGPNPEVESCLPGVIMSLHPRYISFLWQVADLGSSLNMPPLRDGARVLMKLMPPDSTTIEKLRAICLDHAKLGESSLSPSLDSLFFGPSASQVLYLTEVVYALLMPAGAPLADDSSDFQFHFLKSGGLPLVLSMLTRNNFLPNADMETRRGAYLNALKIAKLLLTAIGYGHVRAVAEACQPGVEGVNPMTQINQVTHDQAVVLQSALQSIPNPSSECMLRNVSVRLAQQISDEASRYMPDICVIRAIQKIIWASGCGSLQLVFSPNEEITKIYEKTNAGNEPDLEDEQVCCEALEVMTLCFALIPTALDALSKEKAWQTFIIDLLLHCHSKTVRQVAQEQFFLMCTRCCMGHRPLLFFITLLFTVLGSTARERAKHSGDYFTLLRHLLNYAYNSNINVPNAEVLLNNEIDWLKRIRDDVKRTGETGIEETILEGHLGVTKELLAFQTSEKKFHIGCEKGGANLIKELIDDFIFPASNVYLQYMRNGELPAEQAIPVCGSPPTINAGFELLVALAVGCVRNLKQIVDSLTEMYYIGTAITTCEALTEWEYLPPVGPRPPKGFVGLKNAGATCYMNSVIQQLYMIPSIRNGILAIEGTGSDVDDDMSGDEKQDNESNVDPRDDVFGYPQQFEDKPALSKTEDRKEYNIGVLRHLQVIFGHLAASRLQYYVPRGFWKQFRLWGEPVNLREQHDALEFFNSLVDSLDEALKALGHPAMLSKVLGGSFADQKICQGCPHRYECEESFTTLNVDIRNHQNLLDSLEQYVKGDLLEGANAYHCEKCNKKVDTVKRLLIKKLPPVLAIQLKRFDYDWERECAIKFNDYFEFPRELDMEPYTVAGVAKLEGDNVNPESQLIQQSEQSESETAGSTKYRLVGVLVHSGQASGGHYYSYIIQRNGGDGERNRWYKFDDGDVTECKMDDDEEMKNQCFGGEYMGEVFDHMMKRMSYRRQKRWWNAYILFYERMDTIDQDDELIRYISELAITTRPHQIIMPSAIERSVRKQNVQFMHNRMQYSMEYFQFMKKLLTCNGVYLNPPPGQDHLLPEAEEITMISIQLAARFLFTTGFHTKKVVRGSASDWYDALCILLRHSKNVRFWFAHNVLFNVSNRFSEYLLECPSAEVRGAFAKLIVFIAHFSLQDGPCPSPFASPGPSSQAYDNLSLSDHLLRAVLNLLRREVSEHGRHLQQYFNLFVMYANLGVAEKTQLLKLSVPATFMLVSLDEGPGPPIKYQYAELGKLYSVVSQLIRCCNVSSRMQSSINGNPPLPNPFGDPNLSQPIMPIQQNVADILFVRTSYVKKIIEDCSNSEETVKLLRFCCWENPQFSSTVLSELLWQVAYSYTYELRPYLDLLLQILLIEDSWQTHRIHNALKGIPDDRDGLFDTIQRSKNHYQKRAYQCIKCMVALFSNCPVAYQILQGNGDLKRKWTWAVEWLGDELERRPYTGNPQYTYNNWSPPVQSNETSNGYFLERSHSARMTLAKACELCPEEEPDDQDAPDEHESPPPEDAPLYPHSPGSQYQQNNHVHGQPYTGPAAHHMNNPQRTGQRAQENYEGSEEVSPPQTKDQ
Procedure, shortened: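 NCI-H929, Z138, MM.1S or A375 cells (1–2×10^6) treated 2–6 h at 37 °C with compound in 0.5% DMSO, here 5 μM. Lysates labeled with HA-Ub-VS for 15–60 min at 37 °C. Labeled DUBs resolved by SDS-PAGE and quantified by anti-HA and anti-β-actin immunoblot with infrared detection.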

inhibition at 5 µM [3] [%] | SMILES | PARP cleavage % Inhibition [1] | inhibition at 5 µM [2] [%]
50 to 75 | CN(C)C(=O)c1ccc(C2(NC(=O)/C(C#N)=C/c3ncc(Br)cc3Br)CCCC2)cc1 [Compound 66, (E)-4-(1-(2-cyano-3-(3,5-dibromopyridin-2-yl)acrylamido)cyclopentyl)-N,N-dimethylbenzamide] | A (A is ≧75% inhibition) | ≥ 75
50 to 75 | N#C/C(=C\c1cccc(C2CC2)n1)C(=O)NC1(c2ccc(-c3cccnc3)cc2)CCCC1 [Compound 67, (E)-2-cyano-3-(6-cyclopropylpyridin-2-yl)-N-(1-(4-(pyridin-3-yl)phenyl)cyclopentyl)acrylamide] | A (A is ≧75% inhibition) | ≥ 75
≥ 75 | N#C/C(=C\c1ncc(Br)cc1Br)C(=O)NC1(c2ccc(-c3ccc(C(F)(F)F)nc3)cc2)CCCC1 [Compound 68, (E)-2-cyano-3-(3,5-dibromopyridin-2-yl)-N-(1-(4-(6-(trifluoromethyl)pyridin-3-yl)phenyl)cyclopentyl)acrylamide] | A (A is ≧75% inhibition) | ≥ 75
< 25 | N#C/C(=C\c1ncc(Br)cc1Br)C(=O)NC1(c2ccc(-c3ccc(N4CCCCC4)nc3)cc2)CCCC1 [Compound 69, (E)-2-cyano-3-(3,5-dibromopyridin-2-yl)-N-(1-(4-(6-(piperidin-1-yl)pyridin-3-yl)phenyl)cyclopentyl)acrylamide] | D (D is <25% inhibition) | < 25
50 to 75 | N#C/C(=C\c1cccc(-c2ccc3[nH]ncc3c2)n1)C(=O)NC1(c2ccccc2)CCCC1 [Compound 70, (E)-3-(6-(1H-indazol-5-yl)pyridin-2-yl)-2-cyano-N-(1-phenylcyclopentyl) acrylamide] | A (A is ≧75% inhibition) | ≥ 75
< 25 | N#C/C(=C\c1cccc(-c2cccc(C(=O)O)c2)n1)C(=O)NC1(c2ccccc2)CCCC1 [Compound 71, (E)-3-(6-(2-cyano-3-oxo-3-((1-phenylcyclopentyl)amino)prop-1-en-1-yl)pyridin-2-yl)benzoic acid] | D (D is <25% inhibition) | < 25
50 to 75 | COc1ccc(COc2ccc(C3(NC(=O)/C(C#N)=C/c4cccc(Br)n4)CCCC3)cc2)cc1 [Compound 72, (E)-3-(6-bromopyridin-2-yl)-2-cyano-N-(1-(4-((4-methoxybenzyl)oxy)phenyl)cyclopentyl)acrylamide] | A (A is ≧75% inhibition) | ≥ 75
≥ 75 | N#C/C(=C\c1cccc(Br)n1)C(=O)NC1(c2ccc(-c3cccnc3)cc2)CCCC1 [Compound 73, (E)-3-(6-bromopyridin-2-yl)-2-cyano-N-(1-(4-(pyridin-3-yl)phenyl)cyclopentyl)acrylamide] | A (A is ≧75% inhibition) | ≥ 75
50 to 75 | N#C/C(=C\c1cccc(Br)n1)C(=O)NC1(c2ccc(C#CC3(O)COC3)cc2)CCCC1 [Compound 75, (E)-3-(6-bromopyridin-2-yl)-2-cyano-N-(1-(4-((3-hydroxyoxetan-3-yl)ethynyl)phenyl)cyclopentyl)acrylamide] | A (A is ≧75% inhibition) | ≥ 75
≥ 75 | N#C/C(=C\c1cccc(Br)n1)C(=O)NC1(c2ccc(C#CC3(O)CCCC3)cc2)CCCC1 [Compound 76, (E)-3-(6-bromopyridin-2-yl)-2-cyano-N-(1-(4-((1-hydroxycyclopentyl)ethynyl)phenyl)cyclopentyl)acrylamide] | A (A is ≧75% inhibition) | ≥ 75
